Test system: corneal endothelial cell monolayer
Experiment: Corneal endothelial barrier function: CF permeation through cultured corneal endothelial cell monolayer on permeable collagen membrane
Assay type: cell-based, male white rabbits
Conditions: result in words; effect grows with increasing concentration of substance (I) in the test solution
Experimental: The eyeballs of male white rabbits were enucleated and in a culture medium prepared by adding 10 % fetal calf serum to Dulbecco's Modified MEM (trademark: Dulbecco's Modified Eagle Medium "Nissui" 2, Nissui Pharmaceutical), (hereinafter referred to as DMEM), the cornea was cut out along the corneosclerai limbus with a pair of scissors. From each of the isolated corneal specimens (8 eyes), the endothelium with Descemet's membrane was peeled off, shorn into small pieces, and seeded with about 5 ml of DMEM in a 75 cm^2 culture flask (trademark: Nunclon Tissue Culture Flask 147589; manufactured by Nunc). After adhesion of the cells to the bottom of the flask, about 20 ml of DMEM was added and the cells were cultured for about 7 days until the growth on the internal wall of the flask became confluent. During this period, the medium was replaced with fresh one every 3 days. After completion of culture, the cells were digested with 5 ml of EDTA- trypsin (a phosphate buffer containing 0.01 % of EDTA and 0.125 % of trypsin and not containing calcium or magnesium ion) and, then, mixed with a sufficient quantity of DMEM to terminate the digestion. The digest was centrifuged at 1000 rpm for 2 minutes and the cells were then collected. The harvested cells were re-suspended in DMEM and filtered through a […] nylon filter to remove Descemet's membrane, leaving an exclusive suspension of cells. […]

O=C1O[C@H]([C@@H](O)CO)C(O)=C1OP(=O)(O)O [substance (I)]
permeation of CF through the cultured corneal endothelial cell monolayer: inhibits the permeation of CF
